Measured values: patent US20070032556A1, “Aromatic polyamine derivative” (priority 2003, published 2007)
Where two headings read alike, the source gives them in different places.

Test: solubility of the monomers or polymer in the coating solvent
Format: physicochemical
Description: In 100 g of mesitylene were dissolved 2.48 g (8 mmol) of 1,3,5-adamantanetricarboxylic acid trimethyl ester prepared in Synthesis Example 1 and 6.42 g (12 mmol) of 3,3′-diaminobenzidinetetracyclohexanoimine[N,N′,N″,N′″-tetracyclohexylidene-3,4,3′,4′-biphenyltetramine] prepared in Example 5 at room temperature in a nitrogen atmosphere and thereby yielded a coating composition having a monomer concentration of 8.2 percent by weight. The coating composition was passed through a filter with a pore size of 0.1 micron and was applied to an 8-inch silicon wafer by spin coating. This was heated at 300° C. in a nitrogen atmosphere for thirty minutes, was further heated at 400° C. for thirty minutes, and thereby yielded a film. The infrared absorption spectrum of the resulting polymer film was determined to find that the target crosslinked polybenzimidazole film was formed as shown in the infrared absorption spectral data in FIG. 1. The film has a film thickness of 300 nm.
The procedure of Example 15 was repeated, except for using the same amounts as in Example 15 of 1,3,5-adamantanetricarboxylic acid and 3,3′-diaminobenzidine instead of 1,3,5-adamantanetricarboxylic acid trimethyl ester and N,N′,N″,N′″-tetracyclohexylidene-3,4,3′,4′-biphenyltetramine, respectively, to find the solubility in the solvent (mesitylene) was low. Consequently, a coating composition having a monomer concentration of 1.2 percent by weight was prepared by the procedure of Example 15, except for using 0.54 g (2 mmol) of 1,3,5-adamantanetricarboxylic acid and 0.64 g (3 mmol) of 3,3′-diaminobenzidine. By using this coating composition, a polymer film was prepared by the procedure of […], and the infrared absorption spectrum of the polymer film was determined to find that the target crosslinked polybenzimidazole film was formed. The film has a film thickness of less than 20 nm.
A coating composition having a monomer concentration of 14.7 percent by weight was prepared by dissolving 4.42 g (12 mmol) of 1,3,5,7-adamantanetetracarboxylic acid tetramethyl ester and 12.83 g (24 mmol) of 3,3′-diaminobenzidinetetracyclohexanoimine[N,N′,N″,N′″-tetracyclohexylidene-3,4,3′,4′-biphenyltetramine] prepared according to Example 5 in 100 g of methyl isobutyl ketone (MIBK) at room temperature in a nitrogen atmosphere. The coating composition was passed through a filter with a pore size of 0.1 micron and was applied to an 8-inch silicon wafer by spin coating. This was heated at 300° C. in a nitrogen atmosphere for thirty minutes and further heated at 400° C. for thirty minutes to yield a film. The infrared absorption spectrum of the resulting polymer film was determined to find that the target crosslinked polybenzimidazole film was formed. The film has a film thickness of 400 nm.
The procedure of Example 16 was repeated, except for using the same amounts as in Example 16 of 1,3,5,7-adamantanetetracarboxylic acid and 3,3′-diaminobenzidine instead of 1,3,5,7-adamantanetetracarboxylic acid tetramethyl ester and N,N′,N″,N′″-tetracyclohexylidene-3,4,3′,4′-biphenyltetramine, respectively, to find that the solubility in the solvent (methyl isobutyl ketone: MIBK) was low. Consequently, a coating composition having a monomer concentration of 1.5 percent by weight was prepared by the procedure of Example 16, except for using 0.62 g (2 mmol) of 1,3,5,7-adamantanetetracarboxylic acid and 0.86 g (4 mmol) of 3,3′-diaminobenzidine. By using this coating composition, a polymer film was prepared by the procedure of Example 16, and the infrared absorption spectrum of the film was determined to find that the target crosslinked polybenzimidazole film was formed. The film has a film thickness of less than 20 nm. […]

O=C(O)C12CC3(C(=O)O)CC(C(=O)O)(C1)CC(C(=O)O)(C2)C3 [1,3,5,7-adamantanetetracarboxylic acid]
solubility in the solvent (methyl isobutyl ketone: MIBK): low

O=C(O)C12CC3CC(C(=O)O)(C1)CC(C(=O)O)(C3)C2 [1,3,5-adamantanetricarboxylic acid]
solubility in the solvent (mesitylene): low

Nc1ccc(-c2ccc(N)c(N)c2)cc1N [3,3′-diaminobenzidine]
solubility in the solvent (mesitylene) (same amounts as in Example 15 in 100 g mesitylene, room temperature, nitrogen atmosphere, acid and amine monomer dissolved together): low | solubility in the solvent (methyl isobutyl ketone: MIBK) (same amounts as in Example 16 in 100 g MIBK, room temperature, nitrogen atmosphere, acid and amine monomer dissolved together): low | solubility in the solvent (dioxane) (same amounts as in Example 17 in 100 g dioxane, room temperature, nitrogen atmosphere, together with 1,3,5-adamantanetricarboxylic acid): low

Nc1ccc(-c2ccc(N)c(O)c2)cc1O [3,3′-dihydroxybenzidine]
solubility in the solvent (propylene glycol monomethyl ether: PGME) (same amounts as in Example 19 in 100 g PGME, room temperature, nitrogen atmosphere, together with 1,3,5-adamantanetricarboxylic acid): low
